These results are taken from PMC6017224, “Phytoestrogenic Activity of Blackcurrant Anthocyanins Is Partially Mediated through Estrogen Receptor Beta” (Molecules : A Journal of Synthetic Chemistry and Natural …, 2017).

One may read the IC50 as the concentration that inhibits the measured activity by half.

The target in this assay is T1, human ERβ (Homo sapiens, UniProt Q92731).
T1 construct: purchased Life Technologies
T1 sequence (Q92731 whole entry): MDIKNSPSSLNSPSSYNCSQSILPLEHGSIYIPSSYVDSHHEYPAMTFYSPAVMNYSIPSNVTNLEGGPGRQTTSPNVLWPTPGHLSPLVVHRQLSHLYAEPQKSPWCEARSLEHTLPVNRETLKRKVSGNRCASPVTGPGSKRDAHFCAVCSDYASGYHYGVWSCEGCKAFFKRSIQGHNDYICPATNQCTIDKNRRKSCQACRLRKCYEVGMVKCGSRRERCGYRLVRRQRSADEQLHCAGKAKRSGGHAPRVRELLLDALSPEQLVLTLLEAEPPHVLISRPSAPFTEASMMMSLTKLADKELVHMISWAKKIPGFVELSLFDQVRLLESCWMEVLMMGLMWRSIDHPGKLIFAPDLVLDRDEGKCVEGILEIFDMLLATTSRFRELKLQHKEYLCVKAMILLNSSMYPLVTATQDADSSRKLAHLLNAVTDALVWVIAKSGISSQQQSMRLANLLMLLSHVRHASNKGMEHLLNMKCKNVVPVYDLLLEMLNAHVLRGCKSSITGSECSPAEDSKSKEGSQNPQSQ
The experiment in a line: PolarScreen ERβ competitive binding assay (fluorescence polarization). To be noted: recombinant human ERβ 23 nM, 4.5 nM Fluormone ES2 Green, 2 h; approximate IC50; read-out: IC50 (displacement of Fluormone ES2 Green from ERβ). (In general: In fluorescence polarisation assays a small probe gives low polarisation when free and higher when bound to something large.)
On to `OC[C@H]1O[C@@H](Oc2cc3c(O)cc(O)cc3[o+]c2-c2ccc(O)c(O)c2)[C@H](O)[C@@H](O)[C@@H]1O` [C3G, cyanidin-3-glucoside], for which the IC50 was 2800 nM.
The result for `OC[C@H]1O[C@@H](Oc2cc3c(O)cc(O)cc3[o+]c2-c2cc(O)c(O)c(O)c2)[C@H](O)[C@@H](O)[C@@H]1O` [D3G, delphinidin-3-glucoside] reads 9700 nM; that for `C[C@@H]1O[C@@H](OC[C@H]2O[C@@H](Oc3cc4c(O)cc(O)cc4[o+]c3-c3cc(O)c(O)c(O)c3)[C@H](O)[C@@H](O)[C@@H]2O)[C@H](O)[C@H](O)[C@H]1O` [D3R, delphinidin-3-rutinoside], 2300 nM.
